Reference: article PMC6825221, “In silico re-engineering of a neurotransmitter to activate KCNQ potassium channels in an isoform-specific manner” (Communications Biology, 2019)
“Also recorded” adds a separate entry of the source.

Tests used:
KCNQ3* [1] = target: T1, KCNQ3* (Homo sapiens, UniProt O43525, A315T); test: TEVC of homomeric KCNQ3* (A315T KCNQ3 mutant) expressed in Xenopus oocytes; type: cell-based; settings: dose response
From the text: We next validated the in silico predictions using two-electrode voltage clamp of homomeric neuronal KCNQ2-5 channel isoforms expressed in Xenopus laevis oocytes. […] As in previous studies[8],[10], we used the A315T KCNQ3 mutant (KCNQ3*) that ensures large enough currents to accurately quantify voltage dependence and pharmacology of homomeric KCNQ3[16].
(§1) We generated cRNA transcripts encoding human KCNQ1, KCNQ2, KCNQ3, KCNQ4, KCNQ5 or GLRA1 (NM_001146040) (GenScript, Piscataway, NJ, USA) by in vitro transcription using the T7 polymerase mMessage mMachine kit (Thermo Fisher Scientific), after vector linearization, from cDNA sub-cloned into plasmids incorporating Xenopus laevis β-globin 5′ and 3′ UTRs flanking the coding region to enhance translation and cRNA stability. We quantified cRNA by spectrophotometry. We generated mutant KCNQ2 and KCNQ3 cDNAs by site-directed mutagenesis using a QuikChange kit (Stratagene, San Diego, CA) and prepared the corresponding cRNAs as above. We injected defolliculated stage V and VI Xenopus laevis oocytes (Ecocyte Bioscience, Austin, TX and Xenoocyte, Dexter, MI) with KCNQ channel α subunit (5-20 ng) or GLRA1 (20 ng) cRNAs. We incubated the oocytes at 16 °C in Barth’s saline solution (Ecocyte Bioscience) containing penicillin and streptomycin, with daily washing, for 2–5 days prior to two-electrode voltage-clamp (TEVC) recording.
(§2) We performed TEVC at room temperature using an OC-725C amplifier (Warner Instruments, Hamden, CT) and pClamp10 software (Molecular Devices, Sunnyvale, CA) 2–5 days after cRNA injection as described in the section above. For recording, oocytes were placed in a small-volume oocyte bath (Warner) and viewed them with a dissection microscope. Chemicals were sourced from Sigma, Matrix Scientific and Santa Cruz. […] All stock solutions were diluted in bath solution on the day of experiments. KCNQ2/3 channel activation was screened for using either 30 µM or 100 µM concentrations of each of the six compounds, then dose responses were conducted as appropriate. Bath solution was (in mM): 96 NaCl, 4 KCl, 1 MgCl2, 1 CaCl2, 10 HEPES (pH 7.6). Compounds were introduced into the oocyte recording bath by gravity perfusion at a constant flow of 1 ml per minute for 3 min prior to recording. Pipettes were of 1–2 MΩ resistance when filled with 3 M KCl. Currents were recorded in response to voltage pulses between −120 or −80 mV and + 40 mV at 20 mV intervals from a holding potential of −80 mV, to yield current-voltage relationships, current magnitude, and for quantifying activation rate. We analyzed data using Clampfit (Molecular Devices) and Graphpad Prism software (GraphPad, San Diego, CA, USA); values are stated as mean ± SEM. […]

KCNQ4 = KCNQ4 (Homo sapiens, UniProt P56696); test: TEVC of homomeric KCNQ4 expressed in Xenopus oocytes; type: cell-based; settings: for effects on KCNQ4: dose response
From the text: as §1
(§3) We performed TEVC at room temperature using an OC-725C amplifier (Warner Instruments, Hamden, CT) and pClamp10 software (Molecular Devices, Sunnyvale, CA) 2–5 days after cRNA injection as described in the section above. For recording, oocytes were placed in a small-volume oocyte bath (Warner) and viewed them with a dissection microscope. Chemicals were sourced from Sigma, Matrix Scientific and Santa Cruz. […] All stock solutions were diluted in bath solution on the day of experiments. KCNQ2/3 channel activation was screened for using either 30 µM or 100 µM concentrations of each of the six compounds, then dose responses were conducted as appropriate. Bath solution was (in mM): 96 NaCl, 4 KCl, 1 MgCl2, 1 CaCl2, 10 HEPES (pH 7.6). Compounds were introduced into the oocyte recording bath by gravity perfusion at a constant flow of 1 ml per minute for 3 min prior to recording. Pipettes were of 1–2 MΩ resistance when filled with 3 M KCl. Currents were recorded in response to voltage pulses between −120 or −80 mV and + 40 mV at 20 mV intervals from a holding potential of −80 mV, to yield current-voltage relationships, current magnitude, and for quantifying activation rate. We analyzed data using Clampfit (Molecular Devices) and Graphpad Prism software (GraphPad, San Diego, CA, USA); values are stated as mean ± SEM. We plotted raw or normalized tail currents versus prepulse voltage and fitted with a single Boltzmann function:1 g=(A1−A2)/1+exp(V12−V)∕VS+A2, where g is the normalized tail conductance, A1 is the initial value at −∞, A2 is the final value at +∞, V1/2 is the half-maximal voltage of activation and Vs the slope factor. Activation, deactivation, wash-in and washout kinetics were fitted with single exponential functions to yield a τ value.

KCNQ2/3 [2] = target: T2, KCNQ2/3 (Homo sapiens, UniProt O43525+O43526)
KCNQ2 = KCNQ2 (Homo sapiens, UniProt O43526); test: TEVC of homomeric KCNQ2 expressed in Xenopus oocytes; type: cell-based
From the text: as §1, with “We generated mutant KCNQ2 and KCNQ3 cDNAs by site-directed mutagenesis using a QuikChange kit (Stratagene, San Diego, CA) and prepared the corresponding cRNAs as above.” left out
as §3, with “For” for “We performed TEVC at room temperature using an OC-725C amplifier (Warner Instruments, Hamden, CT) and pClamp10 software (Molecular Devices, Sunnyvale, CA) 2–5 days after cRNA injection as described in the section above. For”

KCNQ2/3 [3] = target: T2, KCNQ2/3; test: TEVC of KCNQ2/3 channels expressed in Xenopus oocytes; type: cell-based; settings: TEVC in oocytes
From the text: as §1, with “We generated mutant KCNQ2 and KCNQ3 cDNAs by site-directed mutagenesis using a QuikChange kit (Stratagene, San Diego, CA) and prepared the corresponding cRNAs as above.” left out
as §3, with “For” for “We performed TEVC at room temperature using an OC-725C amplifier (Warner Instruments, Hamden, CT) and pClamp10 software (Molecular Devices, Sunnyvale, CA) 2–5 days after cRNA injection as described in the section above. For”

GLRA1 = target: T3, GLRA1 (Homo sapiens, UniProt P23415); test: TEVC of glycine receptor GLRA1 expressed in Xenopus oocytes; type: cell-based; settings: 1 mM, compound alone
T3 sequence (P23415 29-457): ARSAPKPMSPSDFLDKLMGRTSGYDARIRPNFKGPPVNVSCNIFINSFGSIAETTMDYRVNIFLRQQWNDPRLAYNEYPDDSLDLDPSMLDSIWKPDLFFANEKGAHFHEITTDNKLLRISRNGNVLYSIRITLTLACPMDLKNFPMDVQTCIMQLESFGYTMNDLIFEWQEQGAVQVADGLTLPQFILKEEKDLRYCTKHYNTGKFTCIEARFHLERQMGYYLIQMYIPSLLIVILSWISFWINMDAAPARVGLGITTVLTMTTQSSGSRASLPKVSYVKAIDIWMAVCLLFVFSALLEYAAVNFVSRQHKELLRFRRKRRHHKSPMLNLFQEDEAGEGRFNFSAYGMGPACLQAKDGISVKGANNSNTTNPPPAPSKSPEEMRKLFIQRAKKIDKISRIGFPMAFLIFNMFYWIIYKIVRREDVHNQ
From the text: as §1, §3

KCNQ5 [4] = target: T4, KCNQ5 (Homo sapiens, UniProt Q9NR82); test: TEVC of homomeric KCNQ5 expressed in Xenopus oocytes; type: cell-based; settings: dose response
From the text: as §1
as §2, with “Bath solution was (in mM): 96 NaCl, 4 KCl, 1 MgCl2, 1 CaCl2, 10 HEPES (pH 7.6). Compounds were introduced into the oocyte recording bath by gravity perfusion at a constant flow of 1 ml per minute for 3 min prior to recording. Pipettes were of 1–2 MΩ resistance when filled with 3 M KCl.” left out

KCNQ1 = KCNQ1 (Homo sapiens, UniProt P51787); test: TEVC of homomeric KCNQ1 expressed in Xenopus oocytes; type: cell-based
From the text: as §1
as §2, with “Bath solution was (in mM): 96 NaCl, 4 KCl, 1 MgCl2, 1 CaCl2, 10 HEPES (pH 7.6). Compounds were introduced into the oocyte recording bath by gravity perfusion at a constant flow of 1 ml per minute for 3 min prior to recording. Pipettes were of 1–2 MΩ resistance when filled with 3 M KCl.” left out

KCNQ3* [5] = target: T1, KCNQ3*; set-up: method as in PMID 29748663; settings: cited from earlier work
KCNQ5 [6] = target: T4, KCNQ5; set-up: method as in PMID 29748663; settings: cited from earlier work
KCNQ3* [7] = target: T1, KCNQ3*; test: [3H]GABA binding and competition, oocytes expressing KCNQ3*
Experimental: Oocytes were then washed four times in 16 °C ND96, transferred to individual wells in a 96 well plate and lysed in 0.2% SDS in ND96. Each oocyte lysate was transferred to a scintillation vial containing 5 ml Cytoscint scintillation cocktail fluid (MP Biomedicals, Santa Ana, CA). Vials were capped, shaken, and then allowed to sit at room temperature for at least 30 min before scintillation counting in a Beckmann Coulter LS6500 liquid scintillation counter.

T2 sequence (O43525 whole entry): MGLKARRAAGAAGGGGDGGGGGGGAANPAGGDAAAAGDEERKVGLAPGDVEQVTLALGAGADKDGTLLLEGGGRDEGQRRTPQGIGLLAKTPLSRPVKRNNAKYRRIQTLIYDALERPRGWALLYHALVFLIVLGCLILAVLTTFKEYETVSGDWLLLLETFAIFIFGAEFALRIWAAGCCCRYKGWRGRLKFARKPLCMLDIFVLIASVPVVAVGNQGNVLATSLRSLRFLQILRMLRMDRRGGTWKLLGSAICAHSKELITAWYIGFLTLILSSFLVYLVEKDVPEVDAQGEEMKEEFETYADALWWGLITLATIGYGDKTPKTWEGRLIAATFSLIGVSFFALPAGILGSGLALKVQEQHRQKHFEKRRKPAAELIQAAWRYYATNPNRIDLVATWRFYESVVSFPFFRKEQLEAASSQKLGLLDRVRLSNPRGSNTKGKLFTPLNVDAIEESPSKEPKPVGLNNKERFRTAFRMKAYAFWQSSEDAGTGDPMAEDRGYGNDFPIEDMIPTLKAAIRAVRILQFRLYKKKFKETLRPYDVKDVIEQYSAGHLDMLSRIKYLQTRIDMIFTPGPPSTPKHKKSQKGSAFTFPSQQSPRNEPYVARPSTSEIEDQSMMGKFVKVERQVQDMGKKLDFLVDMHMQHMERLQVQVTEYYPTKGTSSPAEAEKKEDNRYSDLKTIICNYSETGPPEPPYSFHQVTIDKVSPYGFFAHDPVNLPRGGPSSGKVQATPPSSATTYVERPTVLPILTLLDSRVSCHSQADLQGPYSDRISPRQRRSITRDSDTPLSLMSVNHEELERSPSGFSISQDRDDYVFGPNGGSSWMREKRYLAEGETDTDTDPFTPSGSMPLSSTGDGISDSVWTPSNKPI
T2 sequence (O43526 whole entry): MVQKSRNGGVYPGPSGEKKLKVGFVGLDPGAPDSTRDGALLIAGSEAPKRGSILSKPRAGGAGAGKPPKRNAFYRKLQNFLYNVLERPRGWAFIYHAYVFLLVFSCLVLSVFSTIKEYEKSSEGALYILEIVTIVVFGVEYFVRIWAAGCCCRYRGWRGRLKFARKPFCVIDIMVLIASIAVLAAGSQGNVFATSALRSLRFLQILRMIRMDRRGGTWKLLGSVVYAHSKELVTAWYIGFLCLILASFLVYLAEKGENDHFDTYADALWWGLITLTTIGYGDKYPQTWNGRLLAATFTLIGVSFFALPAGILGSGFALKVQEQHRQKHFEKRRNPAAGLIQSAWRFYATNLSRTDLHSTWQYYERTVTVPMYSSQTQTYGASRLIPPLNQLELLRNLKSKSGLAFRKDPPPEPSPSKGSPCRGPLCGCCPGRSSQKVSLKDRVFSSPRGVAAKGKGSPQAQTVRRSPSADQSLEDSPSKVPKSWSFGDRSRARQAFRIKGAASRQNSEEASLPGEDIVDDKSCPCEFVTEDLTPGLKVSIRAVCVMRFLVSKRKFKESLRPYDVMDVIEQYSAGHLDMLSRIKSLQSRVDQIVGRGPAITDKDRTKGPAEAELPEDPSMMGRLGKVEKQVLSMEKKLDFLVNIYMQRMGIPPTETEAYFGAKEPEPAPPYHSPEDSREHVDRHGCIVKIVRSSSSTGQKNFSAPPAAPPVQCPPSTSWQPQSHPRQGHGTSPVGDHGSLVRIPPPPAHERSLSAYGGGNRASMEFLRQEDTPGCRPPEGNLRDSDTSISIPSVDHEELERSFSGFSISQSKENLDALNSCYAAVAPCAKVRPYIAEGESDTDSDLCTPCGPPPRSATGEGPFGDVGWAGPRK

SMILES	effects on KCNQ3* (KCNQ3* [1])	effects on KCNQ4 (KCNQ4)	binding of tritiated ligand to wild-type KCNQ2/3 (KCNQ2/3 [2]; CPM over 30 min)	inhibition of GABA binding to wild-type KCNQ2/3 (KCNQ2/3 [2]; cold glycine 100 µM)	effects on KCNQ2 (KCNQ2; dose response)	activation of KCNQ2/3 (KCNQ2/3 [3])	activation of GLRA1 (GLRA1)	effects on KCNQ5 (KCNQ5 [4])	KCNQ4 activation and deactivation rates (KCNQ4; 30 µM)	EC50 (KCNQ4; ΔV0.5act, read-out: EC50, KCNQ4 activation) [nM]	KCNQ1 activation and deactivation rates (KCNQ1; 30 µM)	EC50 (KCNQ1; ΔV0.5act, read-out: EC50, KCNQ1 activation) [nM]	KCNQ2 activation and deactivation rates (KCNQ2; 4FPG 30 µM, 2FPG 100 µM)	EC50 (KCNQ2; wild-type KCNQ2, ΔV0.5act, read-out: EC50, KCNQ2 activation) [nM]	EC50 (KCNQ2/3 [3]; shift in voltage dependence of activation (ΔV0.5act), read-out: EC50, KCNQ2/3 activation) [nM]	activation of KCNQ3 (KCNQ3* [5])	activation of KCNQ5 (KCNQ5 [6])	[3H]GABA binding to KCNQ3* (KCNQ3* [7])
NCC(=O)O [glycine, reference compound]	no effects	unable to open	did not	did not inhibit GABA binding	unable to open	nor does it activate KCNQ2/3; also recorded: no effect	robust activation	no effects										
NC(C(=O)O)c1ccc(F)cc1 (stereo not drawn) [4FPG, 4-(fluorophenyl)glycine]	no effects							no effects	speeded KCNQ2 and KCNQ4 activation and slowed their deactivation	49 ± 12	slowed KCNQ1 deactivation but did not speed its activation	90 ± 20	speeded KCNQ2 and KCNQ4 activation and slowed their deactivation	69 ± 31	61 ± 42			
NCCCC(=O)O [GABA, γ-aminobutyric acid, reference compound]		unable to open														activate only KCNQ3 and KCNQ5	activate only KCNQ3 and KCNQ5	bound
